Results from PMC4501059, “Responding to the challenge of untreatable gonorrhea: ETX0914, a first-in-class agent with a distinct mechanism-of-action against bacterial Type II topoisomerases” (Scientific Reports, 2015).
Where two headings read alike, the source gives them in different places.

Tests used:
[1] = Single dose pharmacokinetics, rat; assay type: in vivo; conditions: Han-Wister rat (male)
Procedure: (§1) AZD0914 was analyzed in mouse, rat, dog, monkey plasma using a qualified method which was later validated for human plasma analysis. The validated human method is described below and is representative of the approach taken in other species. AZD0914 was determined in human plasma prepared with K2EDTA as an anticoagulant. AZD0914 and an internal standard (^13C2, ^15N2 AZD0914) were extracted from plasma with tert- butyl methyl ether. After evaporating to dryness under a stream of nitrogen, the residue was reconstituted and quantitated by reverse phase HPLC-MS/MS against a standard curve from 1.00 to 5000 ng/ml. Separation was achieved using a gradient which went from 55% to 85% methanol:acetonitrile (1:1) containing 0.2% formic acid as mobile phase B and 0.2% formic acid in water as mobile phase A at a flow rate of 0.60 ml/min through a Phenomonex Gemini C18 column (50 x 2.0 mm column, […]) heated using a Shimadzu CTO-20AC set to 40 °C. AZD0914 was detected in multiple reaction monitoring (MRM) mode by positive ion electrospray ionization using a Sciex API5500 (Toronto, Canada) mass spectrometer. The ion spray voltage was set to 5500 V and turboionspray temperature was 650 °C. AZD0914 was quantitated using the MRM transition 488.2 → 348.2 using a collision energy of 29 eV. The internal standard, (^13C2, ^15N2 AZD0914), was monitored using identical conditions except for the MRM transition of 492.2 → 348.2.

N. gonorrhoeae = assay: clinical PK/PD magnitude, gonococcal infection
Haemophilus influenzae = test system: Haemophilus influenzae; design: method as in ref 2 (supplement); conditions: 352 tested; ref 2 (supplement); cited from earlier work
S. aureus = conditions: 4X MIC, various strains; cited from earlier work
hERG = hERG (Homo sapiens, UniProt Q12809); assay: In vitro ion channel function
S. aureus Topo IV = S. aureus Topo IV (Staphylococcus aureus, UniProt P0C1S7+P0C1U9); assay: S. aureus Topo IV cleaved complex ligation assay; assay type: biochemical; conditions: free Mg2+ 0.06 μM to 8 mM
[2] = Single dose pharmacokinetics, mouse; assay type: in vivo, CD-1 mouse
Procedure: as §1

[3] = plasma protein binding, dog; assay type: in vitro ADME; conditions: in vitro at 1-50 µM
Source text: Supplement srep11827-s1.doc, table 4 | column: Beagle dog (male)

[4] = test system: Coagulase-negative Staphylococci; design: method as in ref 2 (supplement); conditions: 1923 tested; ref 2 (supplement); cited from earlier work
Streptococcus agalactiae = test system: Streptococcus agalactiae; design: method as in ref 2 (supplement); conditions: 441 tested; ref 2 (supplement); cited from earlier work
[5] = Quantitative whole-body autoradiography, tissue distribution of radioactivity; assay type: in vivo, male pigmented Lister Hood rat; conditions: rat plasma after iv infusion of 14C label
Procedure: Quantitative whole-body autoradiography. The distribution of radioactivity in male, pigmented Lister Hood rat tissues was obtained after a single intravenous infusion over 15 minutes of ^14C-AZD0914 at 25 mg/kg (51 μmol/kg, 5 MBq/kg) using quantitative whole-body autoradiography with phosphor-imaging technology. The potential of this compound and/or its metabolites to bind to melanin-containing tissues and/or to potentially bind covalently to tissues was also evaluated. The rats were sacrificed at 5 minutes, 1 hour, 4 hours, 24 hours, 48 hours, 7 days and 21 days after the end of infusion with enflurane (Efrane®, Abbott Laboratories, USA), and frozen in acetone, cooled to -70 °C with solid CO2. The 7- and 21- day animals could not be quantified as no trace of radioactivity was observed. After removal of limbs and tail, the carcass was embedded, with left lateral side uppermost, in a 2.5% (w/v) aqueous solution of caramellosum natricum and frozen for at least 10 minutes. The animal blocks were stored at -20 °C until sectioning. Sagittal whole-body sections (30 μm) were obtained to include organs and tissues of interest. At sectioning each block was mounted in a Leica CM3600 Cryomacrotome (Leica Microsystems GmbH, Germany) maintained at approximately -20 °C. All sections were dried at -20 °C for at least 1 day prior to exposure on phosphor-imaging plates. Together with two sets of calibration standards, the sections were placed on phosphor-imaging plates, which had been pre-covered with a thin plastic film. The imaging plates were exposed for 1 to 3 days at +4 to +12 °C, enclosed in light tight cassettes in a lead shielding box to protect from environmental radiation. Following exposure, the imaging plates were scanned at a pixel size of 50 μm using FLA-7000 (FujiFilm Sverige AB, Sweden). The tissues and organs of interest were quantified using AIDA 3.5 (Raytest, Germany). The quantification limit was defined as twice the background value of the imaging plate and varied between the plates from 0.23 to 0.33 nmol/g. The various tissues and organs were identified either on the autoradiograms or on the corresponding tissue sections.

[6] = CV dog telemetry (single dose, iv); conditions: for Cmax: plasma
DNA gyrase or Topo IV = assay: Malachite Green based ATPase assays; assay type: biochemical
S. aureus DNA gyrase = S. aureus DNA gyrase (Staphylococcus aureus, UniProt P0A0K8+P20831); conditions: free Mg2+ 0.06 μM to 8 mM
[7] = Human plasma protein binding (PPB); conditions: plasma

C[C@@H]1CN2c3c(cc4c(N5C(=O)OC[C@@H]5C)noc4c3F)CC3(C(=O)NC(=O)NC3=O)[C@H]2[C@H](C)O1 [ETX0914]
Ka [1]: 1.6 h⁻¹
clearance ([1]; plasma, IV 10 mg/kg, read-out: Clp (IV)): 22 mL/min/kg
half-life ([1]; plasma, IV 10 mg/kg, read-out: T1/2 (IV) (converted)): 0.7 h
Vd ([1]; plasma, IV 10 mg/kg, read-out: Vss (IV)): 1.2 L/kg
bioavailability ([1]; plasma, IV 10 / PO 10 mg/kg): 34%
Cmax ([1]; plasma, PO 10 mg/kg): 1700 nM
half-life ([1]; plasma, PO 10 mg/kg, read-out: T1/2 (PO) (converted)): 1.8 h
predicted efficacious mean AUC in humans (N. gonorrhoeae): 49000 ng·h/mL
MIC90 (Haemophilus influenzae): 0.5^2 µg/ml
MIC Range (Haemophilus influenzae): 0.03 to 2.0 µg/mL
frequency of resistance (S. aureus): < 1.1 × 10^−9
IC50 (hERG; hERG IC50, K^+ rectifying current/QT interval): 316 µM
margin of ion channel IC50 relative to Cmax (hERG; ion channels including hERG, Cmax at highest 4000 mg Phase 1 dose): greater than 10 fold
re-ligation of inhibitor-induced cleaved DNA on removal of Mg2+ (S. aureus Topo IV): No ligation is observed
clearance ([2]; CD-1, plasma, mouse, ABT pre-dosing, read-out: CLp after pre-dosing with 1-aminobenzotriazole (ABT)): 15 mL/min/kg
Ka ([2]; CD-1 mouse (female)): 1.7 h⁻¹
lowering of CLp by ABT pre-dosing ([2]; mouse): ~5 fold
clearance ([2]; plasma, CD-1 mouse (female), IV 3 mg/kg, read-out: Clp (IV)): 70 mL/min/kg
half-life ([2]; plasma, CD-1 mouse (female), IV 3 mg/kg, read-out: T1/2 (IV) (converted)): 0.5 h
Vd ([2]; plasma, CD-1 mouse (female), IV 3 mg/kg, read-out: Vss (IV)): 3.6 L/kg
bioavailability ([2]; plasma, CD-1 mouse (female), IV 3 / PO 10 mg/kg): 46%
Cmax ([2]; plasma, CD-1 mouse (female), PO 10 mg/kg): 1700 nM
half-life ([2]; plasma, CD-1 mouse (female), PO 10 mg/kg, read-out: T1/2 (PO) (converted)): 1.6 h
PPB (%free) [3]: 18.4±0.3 %free
MIC90 [4]: 0.25^2 µg/ml
MIC Range [4]: 0.015 to 2.0 µg/mL
MIC90 (Streptococcus agalactiae): 0.25^2 µg/ml
MIC Range (Streptococcus agalactiae): 0.03 to 0.5 µg/mL
share of circulating radioactivity in plasma accounted for by parent [5]: ~ 90%
NOEL ([6]; CV dog telemetry, single dose, iv): 50 mg/kg/day
cardiovascular effects ([6]; IV telemetry dog study, 100 mg/kg): decreases in blood pressure, contractility and PR interval and an increase in the heart rate
other ECG intervals ([6]; dog): no changes to other ECG intervals including QTc or QRS
Cmax ([6]; dog, iv, 50 mg/kg): 63 µg/mL
Cmax ([6]; dog, iv, 100 mg/kg): 160 µg/mL
Salient Pathology Findings ([6]; single dose iv, 100 mg/kg): Emesis Increase in cardiac contractility\relaxation and heart rate Decrease in systolic & diastoloic blood pressure Orthostatic hypertension
inhibition of ATPase activity (DNA gyrase or Topo IV): lack of inhibition of ATPase activity
re-ligation of inhibitor-induced cleaved DNA on removal of Mg2+ (S. aureus DNA gyrase): re-ligation remained blocked
re-ligation of inhibitor-induced cleaved DNA on removal of Mg2+ (S. aureus DNA gyrase; listed as AZD0914): No ligation is observed
fraction unbound [7]: 0.17
